Data as given in patent publication US6245816A, “Benzoylphenylurea insecticides and methods of using certain benzoylphenylureas to control ants” (priority 2000, dated 2001).

What was measured:
Assay type in all cases: in vivo
[1] = tested on: Subterranean Termite (Reticulitermes flavipes); assay: Subterranean termite, limited exposure (7 days), mortality at 14, 28, 42 and 56 days; settings: high rate, in words
Description: (§1) Subterranean Termite (Reticulitermes flavipes)
Limited exposure (7 days) with mortality determined at 14, 28, 42, and 56 days

[2] = tested on: German cockroach 2nd instars (Blattella germanica); assay: German cockroach 2nd instars, continuous, low-dose ingestion exposure (treated cornmeal); settings: for activity relative to hexaflumuron: continuous exposure; for activity relative to hexaflumuron / activities in cockroaches (Compounds 1, 2, and 3 compared): in words; for LC50 (ppm) 21 days / LC50 (ppm) 42 days: continuous ingestion exposure, treated cornmeal; for activities in cockroaches (Compounds 1, 2, and 3 compared): test not specified further, all three compounds were tested only under continuous exposure
Description: German cockroach 2nd instars (Blattella germanica)
Continuous, low-dose ingestion exposure (treated cornmeal)

[3] = tested on: Red Imported Fire Ant (RIFA) (Solenopsis inivicta); assay: Laboratory ant bait study, Red Imported Fire Ant, brood reduction; settings: for Time to Achieve 50% Brood Reduction / Time to Achieve 90% Brood Reduction: RIFA, 3-4 day exposure
Experimental: (§2) Laboratory ant bait studies were carried out with Red Imported Fire Ant (RIFA) (Solenopsis inivicta) and Pharaoh Ant (Monomorium pharionis). Chitin synthesis inhibitors, such as the compounds of the invention, control ants by killing the molting larvae and/or pupae and potentially preventing the hatching of eggs. Because adult workers are not affected, control is measured by effects on the brood. The studies involved 3-4 day exposure to bait. These limited exposure studies more accurately represent real world bait availability than continuous exposure.

[4] = tested on: Subterranean Termite (Reticulitermes flavipes); assay: Subterranean termite, continuous exposure (56 days) to treated paper; settings: for LC50 (ppm) 56 days / LC50 (ppm) 35 days: continuous exposure to treated paper; for potency and speed of action relative to hexaflumuron: continuous exposure, in words
Description: as §1
Continuous exposure (56 days) to treated paper

[5] = tested on: Cat Flea (Ctenocephalides felis); assay: Cat flea, continuous exposure of larvae to treated media, impact on subsequent adult emergence; settings: for efficacy relative to hexaflumuron: cat fleas, in words
Description: Cat Flea (Ctenocephalides felis)
Continuous exposure of larvae to treated media, impact on subsequent adult emergence

[6] = tested on: Pharaoh Ant (Monomorium pharionis); assay: Laboratory ant bait study, Pharaoh Ant, brood reduction; settings: 0.1% in bait, 3-4 day exposure
Experimental: as §2

[7] = tested on: German cockroach 2nd instars (Blittella germanica); assay: German cockroach 2nd instars, limited ingestion exposure (48 hr) to treated cornmeal; settings: for potency relative to hexaflumuron: limited exposure, at both 21 and 42 days after exposure, in words
Description: German cockroach 2nd instars (Blittella germanica)
Limited ingestion exposure (48 hr) to treated cornmeal

Daphnia = assay: Activity against Daphnia, 48 hr exposure to treated water
[8] = 0.1% in bait, NA = not achieved
[9] = continuous exposure of larvae to treated media, subsequent adult emergence
[10] = limited ingestion exposure (48 hr), treated cornmeal

Row | SMILES | activity relative to hexaflumuron [2] | LC50 (ppm) 21 days [2] [ppm] | LC50 (ppm) 42 days [2] [ppm] | activities in cockroaches (Compounds 1, 2, and 3 compared) [2] | LC50 (ppm) 56 days [4] [ppm] | potency and speed of action relative to hexaflumuron [4] | efficacy relative to hexaflumuron [5] | potency relative to hexaflumuron [7] | LC50 (ppm) 42 days [7, 10] | LC50 (ppm) 35 days [4] [ppm] | other results
1 | O=C(NC(=O)c1c(F)cccc1F)Nc1cc(Cl)c(OC(F)(F)C(F)C(F)(F)F)c(Cl)c1F (stereo not shown) [Compound 1, N-[3,5-Dichloro-2-fluoro-4-(1,1,2,3,3,3-hexafluoropropoxy)phenyl]-N'-(2,6-difluorobenzoyl)urea] | far more active than hexaflumuron | < 2.2 | < 0.78 | quite similar | < 0.78 | more potent and quicker acting than hexaflumuron | far more efficacious than hexaflumuron | more potent than hexaflumuron | < 9.1 ppm | – | mortality relative to hexaflumuron [1]: induced more mortality earlier than did hexaflumuron; Time to Achieve 50% Brood Reduction [3, 8]: 2 wks; Time to Achieve 90% Brood Reduction [3, 8]: 3 wks; potency relative to hexaflumuron ([3]; short exposure study with RIFA, in words): significantly more potent than hexaflumuron; LC50 (ppm) [5, 9]: 2.8 ppm; LC90 (ppm) [5, 9]: 22 ppm; Percent brood reduction achieved at end of study ([6]; @ 13 wks): 70%; Time to Achieve 50% Brood Reduction ([6]; NA = not achieved): 4 wks
2 | CCN(C(=O)NC(=O)c1c(F)cccc1F)c1cc(Cl)c(OC(F)(F)C(F)C(F)(F)F)c(Cl)c1F (stereo not shown) [Compound 2, N-[3,5-Dichloro-2-fluoro-4-(1,1,2,3,3,3-hexafluoropropoxy)phenyl]-N'-(2,6-difluorobenzoyl)-N-ethylurea] | far more active than hexaflumuron | 0.35 | 0.26 | quite similar | < 0.78 | more potent and quicker acting than hexaflumuron | far more efficacious than hexaflumuron | more potent than hexaflumuron | – | < 0.78 | activity against Daphnia relative to Compound 1 and hexaflumuron (Daphnia; in vivo): much less active against Daphnia than were Compound 1 and hexaflumuron
3 | CCN(C(=O)Nc1cc(Cl)c(OC(F)(F)C(F)C(F)(F)F)c(Cl)c1F)C(=O)c1c(F)cccc1F (stereo not shown) [Compound 3, N-[3,5-Dichloro-2-fluoro-4-(1,1,2,3,3,3-hexafluoropropoxy)phenyl]-N'-(2,6-difluorobenzoyl)-N'-ethyl urea] | far more active than hexaflumuron | 8.0 | 1.5 | quite similar | – | – | – | – | – | – | activity against Daphnia relative to Compound 1 and hexaflumuron (Daphnia; in words): much less active against Daphnia than were Compound 1 and hexaflumuron
4 | O=C(NC(=O)c1c(F)cccc1F)Nc1cc(Cl)c(OC(F)(F)C(F)F)c(Cl)c1 [hexaflumuron, reference compound] | – | > 200 | > 200 | – | 1.3 | – | – | – | > 10,000 ppm | > 200 | Time to Achieve 50% Brood Reduction ([3]; 0.25% in bait): 4 wks; Time to Achieve 90% Brood Reduction ([3]; 0.25% in bait): 10 wks; LC50 (ppm) 21 days ([7]; limited ingestion exposure (48 hr), treated cornmeal, 21 days): > 10,000 ppm
